According to US20260285850A1, “SUBSTITUTED OXAZOLIDINONES AND IMIDAZOLINONES AS HERBICIDES” (FMC CORPORATION, priority 2023, published 2026):

Tests used:
Assay type in all cases: in vivo
[1] = tested on: barnyardgrass (Echinochloa crus-galli); experiment: Test A preemergence soil spray, visual injury rating 0-100; conditions: 10 days, 0 = no effect, 100 = complete control; for Barnyardgrass plant response rating (0-100): 31 g ai/ha; for Barnyardgrass plant response rating (0 to 100 scale): 125 g ai/ha
From the text: (§1) Seeds of plant species selected from barnyardgrass (Echinochloa crus-galli), blackgrass (Alopecurus myosuroides), corn (Zea mays), foxtail, giant (giant foxtail, Setaria faberi), green foxtail (Setaria viridis), goosegrass (Eleusine indica), kochia (Bassia scoparia), oat, wild (wild oat, Avena fatua), palmer (palmer amaranth, palmer pigweed, Amaranthus palmeri), ragweed (common ragweed, Ambrosia artemisiifolia), ryegrass, Italian (italian ryegrass, Lolium multiflorum), soybean (Glycine max) and wheat (Triticum aestivum) were planted into a blend of loam soil and sand and treated preemergence with a directed soil spray using test chemicals formulated in a non-phytotoxic solvent mixture which included a surfactant.
(§2) At the same time, plants selected from these crops and weed species and also galium (catchweed bedstraw, Galium aparine) and horseweed (Erigeron canadensis) were planted in pots containing the same blend of loam soil and sand and treated with postemergence applications of test chemicals formulated in the same manner. Plants ranged in height from 2 to 10 cm and were in the one- to two-leaf stage for the postemergence treatment. Treated plants and untreated controls were maintained in a greenhouse for 10 days, after which time all treated plants were compared to untreated controls and visually evaluated for injury. Plant response ratings, summarized in Table A, are based on a 0 to 100 scale where 0 is no effect and 100 is complete control. A dash (-) response means no test result.

[2] = tested on: blackgrass (Alopecurus myosuroides); experiment: as above; conditions: 10 days, 0 = no effect, 100 = complete control; for Blackgrass plant response rating (0-100): 31 g ai/ha; for Blackgrass plant response rating (0 to 100 scale): 125 g ai/ha
From the text: as §1, §2

corn (Zea mays) [3] = experiment: as above; conditions: 10 days, 0 = no effect, 100 = complete control; for Corn plant response rating (0-100): 31 g ai/ha; for Corn plant response rating (0 to 100 scale): 125 g ai/ha
From the text: as §1, §2

kochia (Bassia scoparia) [4] = experiment: as above; conditions: 10 days, 0 = no effect, 100 = complete control; for Kochia plant response rating (0-100): 31 g ai/ha; for Kochia plant response rating (0 to 100 scale): 125 g ai/ha
From the text: as §1, §2

[5] = tested on: oat, wild (wild oat, Avena fatua); experiment: as above; conditions: 10 days, 0 = no effect, 100 = complete control; for Oat, Wild plant response rating (0-100): 31 g ai/ha; for Oat, Wild plant response rating (0 to 100 scale): 125 g ai/ha
From the text: as §1, §2

[6] = tested on: palmer (palmer amaranth, palmer pigweed, Amaranthus palmeri); experiment: as above; conditions: 10 days, 0 = no effect, 100 = complete control; for Amaranth, Palmer plant response rating (0-100): 31 g ai/ha; for Amaranth, Palmer plant response rating (0 to 100 scale): 125 g ai/ha
From the text: as §1, §2

[7] = tested on: ragweed (common ragweed, Ambrosia artemisiifolia); experiment: as above; conditions: 10 days, 0 = no effect, 100 = complete control; for Ragweed plant response rating (0-100): 31 g ai/ha; for Ragweed plant response rating (0 to 100 scale): 125 g ai/ha
From the text: as §1, §2

[8] = tested on: ryegrass, Italian (italian ryegrass, Lolium multiflorum); experiment: as above; conditions: 10 days, 0 = no effect, 100 = complete control; for Ryegrass, Italian plant response rating (0-100): 31 g ai/ha; for Ryegrass, Italian plant response rating (0 to 100 scale): 125 g ai/ha
From the text: as §1, §2

soybean (Glycine max) [9] = experiment: as above; conditions: 10 days, 0 = no effect, 100 = complete control; for Soybean plant response rating (0-100): 31 g ai/ha; for Soybean plant response rating (0 to 100 scale): 125 g ai/ha
From the text: as §1, §2

[10] = tested on: wheat (Triticum aestivum); experiment: as above; conditions: 10 days, 0 = no effect, 100 = complete control; for Wheat plant response rating (0-100): 31 g ai/ha; for Wheat plant response rating (0 to 100 scale): 125 g ai/ha
From the text: as §1, §2

[11] = tested on: barnyardgrass (Echinochloa crus-galli); experiment: Test A postemergence application, visual injury rating 0-100; conditions: Postemergence
From the text: as §1, §2

[12] = tested on: blackgrass (Alopecurus myosuroides); experiment: as above; conditions: Postemergence
From the text: as §1, §2

corn (Zea mays) [13] = experiment: as above; conditions: Postemergence
From the text: as §1, §2

[14] = tested on: galium (catchweed bedstraw, Galium aparine); experiment: as above; conditions: Postemergence
From the text: as §1, §2

[15] = tested on: horseweed (Erigeron canadensis); experiment: as above; conditions: Postemergence
From the text: as §1, §2

kochia (Bassia scoparia) [16] = experiment: as above; conditions: Postemergence
From the text: as §1, §2

[17] = tested on: oat, wild (wild oat, Avena fatua); experiment: as above; conditions: Postemergence
From the text: as §1, §2

[18] = tested on: palmer (palmer amaranth, palmer pigweed, Amaranthus palmeri); experiment: as above; conditions: Postemergence
From the text: as §1, §2

[19] = tested on: ragweed (common ragweed, Ambrosia artemisiifolia); experiment: as above; conditions: Postemergence
From the text: as §1, §2

[20] = tested on: ryegrass, Italian (italian ryegrass, Lolium multiflorum); experiment: as above; conditions: Postemergence
From the text: as §1, §2

soybean (Glycine max) [21] = experiment: as above; conditions: Postemergence
From the text: as §1, §2

[22] = tested on: wheat (Triticum aestivum); experiment: as above; conditions: Postemergence
From the text: as §1, §2

[23] = 31 g ai/ha, greenhouse 10 days, 0 no effect, 100 complete control
[24] = 125 g ai/ha, 10 days, 0 is no effect, 100 is complete control

CC1(C(=O)NC2CC=C(C(=O)NS(=O)(=O)C3CC3)C2)CN(c2cc(Cl)cc(Cl)c2)C(=O)O1 (stereo not shown) [Compound 75]
40: Blackgrass plant response rating (0 to 100 scale) [2] | Wheat plant response rating (0 to 100 scale) [10] | Galium plant response rating (0 to 100 scale) [14, 23] | Horseweed plant response rating (0 to 100 scale) [15, 23]
80: Barnyardgrass plant response rating (0 to 100 scale) [1] | Barnyardgrass plant response rating (0 to 100 scale) [11, 23] | Blackgrass plant response rating (0 to 100 scale) [12, 24] | Galium plant response rating (0 to 100 scale) [14, 24] | Kochia plant response rating (0 to 100 scale) (kochia (Bassia scoparia) [16]; [23]) | Kochia plant response rating (0 to 100 scale) (kochia (Bassia scoparia) [16]; [24]) | Wheat plant response rating (0 to 100 scale) [22, 24]
50: Kochia plant response rating (0-100) (kochia (Bassia scoparia) [4]) | Amaranth, Palmer plant response rating (0-100) [6] | Ryegrass, Italian plant response rating (0 to 100 scale) [20, 23] | Soybean plant response rating (0 to 100 scale) (soybean (Glycine max) [21]; [24])
10: Ragweed plant response rating (0-100) [7] | Ryegrass, Italian plant response rating (0-100) [8] | Soybean plant response rating (0 to 100 scale) (soybean (Glycine max) [9]) | Oat, Wild plant response rating (0 to 100 scale) [17, 23]
20: Blackgrass plant response rating (0-100) [2] | Soybean plant response rating (0 to 100 scale) (soybean (Glycine max) [21]; [23])
30: Soybean plant response rating (0-100) (soybean (Glycine max) [9])
70: Ryegrass, Italian plant response rating (0 to 100 scale) [8] | Corn plant response rating (0 to 100 scale) (corn (Zea mays) [13]; [23]) | Horseweed plant response rating (0 to 100 scale) [15, 24] | Amaranth, Palmer / Pigweed, Palmer plant response rating (0 to 100 scale) [18, 23] | Ryegrass, Italian plant response rating (0 to 100 scale) [20, 24] | Wheat plant response rating (0 to 100 scale) [22, 23]
0: Barnyardgrass plant response rating (0-100) [1] | Corn plant response rating (0-100) (corn (Zea mays) [3]) | Corn plant response rating (0 to 100 scale) (corn (Zea mays) [3]) | Oat, Wild plant response rating (0-100) [5] | Oat, Wild plant response rating (0 to 100 scale) [5] | Ragweed plant response rating (0 to 100 scale) [7] | Wheat plant response rating (0-100) [10] | Blackgrass plant response rating (0 to 100 scale) [12, 23] | Ragweed plant response rating (0 to 100 scale) [19, 23]
60: Ragweed plant response rating (0 to 100 scale) [19, 24]
90: Kochia plant response rating (0 to 100 scale) (kochia (Bassia scoparia) [4]) | Amaranth, Palmer plant response rating (0 to 100 scale) [6] | Barnyardgrass plant response rating (0 to 100 scale) [11, 24] | Corn plant response rating (0 to 100 scale) (corn (Zea mays) [13]; [24]) | Oat, Wild plant response rating (0 to 100 scale) [17, 24] | Amaranth, Palmer / Pigweed, Palmer plant response rating (0 to 100 scale) [18, 24]

CC1(C(=O)NC2C=CC(C(=O)NS(=O)(=O)C(C)(C)C)C2)CN(c2cc(F)cc(F)c2)C(=O)O1 (stereo not shown) [Compound 80]
90: Barnyardgrass plant response rating (0 to 100 scale) [11, 24] | Oat, Wild plant response rating (0 to 100 scale) [17, 23] | Oat, Wild plant response rating (0 to 100 scale) [17, 24] | Wheat plant response rating (0 to 100 scale) [22, 24]
50: Amaranth, Palmer plant response rating (0 to 100 scale) [6] | Wheat plant response rating (0 to 100 scale) [10] | Amaranth, Palmer / Pigweed, Palmer plant response rating (0 to 100 scale) [18, 23]
80: Barnyardgrass plant response rating (0 to 100 scale) [11, 23] | Galium plant response rating (0 to 100 scale) [14, 23] | Galium plant response rating (0 to 100 scale) [14, 24] | Kochia plant response rating (0 to 100 scale) (kochia (Bassia scoparia) [16]; [24]) | Ryegrass, Italian plant response rating (0 to 100 scale) [20, 24] | Soybean plant response rating (0 to 100 scale) (soybean (Glycine max) [21]; [24])
0: Barnyardgrass plant response rating (0-100) [1] | Blackgrass plant response rating (0-100) [2] | Corn plant response rating (0-100) (corn (Zea mays) [3]) | Corn plant response rating (0 to 100 scale) (corn (Zea mays) [3]) | Kochia plant response rating (0-100) (kochia (Bassia scoparia) [4]) | Oat, Wild plant response rating (0-100) [5] | Amaranth, Palmer plant response rating (0-100) [6] | Ragweed plant response rating (0 to 100 scale) [7] | Ryegrass, Italian plant response rating (0-100) [8] | Soybean plant response rating (0-100) (soybean (Glycine max) [9]) | Wheat plant response rating (0-100) [10] | Ragweed plant response rating (0 to 100 scale) [19, 23]
60: Ryegrass, Italian plant response rating (0 to 100 scale) [8] | Wheat plant response rating (0 to 100 scale) [22, 23]
100: Corn plant response rating (0 to 100 scale) (corn (Zea mays) [13]; [24])
30: Blackgrass plant response rating (0 to 100 scale) [2] | Oat, Wild plant response rating (0 to 100 scale) [5] | Blackgrass plant response rating (0 to 100 scale) [12, 23] | Corn plant response rating (0 to 100 scale) (corn (Zea mays) [13]; [23])
70: Kochia plant response rating (0 to 100 scale) (kochia (Bassia scoparia) [4]) | Blackgrass plant response rating (0 to 100 scale) [12, 24] | Horseweed plant response rating (0 to 100 scale) [15, 24] | Kochia plant response rating (0 to 100 scale) (kochia (Bassia scoparia) [16]; [23]) | Amaranth, Palmer / Pigweed, Palmer plant response rating (0 to 100 scale) [18, 24] | Ryegrass, Italian plant response rating (0 to 100 scale) [20, 23] | Soybean plant response rating (0 to 100 scale) (soybean (Glycine max) [21]; [23])
10: Ragweed plant response rating (0-100) [7] | Soybean plant response rating (0 to 100 scale) (soybean (Glycine max) [9]) | Horseweed plant response rating (0 to 100 scale) [15, 23]
40: Barnyardgrass plant response rating (0 to 100 scale) [1] | Ragweed plant response rating (0 to 100 scale) [19, 24]
